Consider 14 compounds from patent US10844054B2, “Compounds for pain treatment, compositions comprising same, and methods of using same” (CERSCI THERAPEUTICS, INC., priority 2018, dated 2020).

SMILES strings stand for the structures. Where two headings read alike, the source gives them in different places. Some results are limits rather than exact numbers.

Series [1] in a line: Inhibition of SIN1-mediated peroxynitrite oxidation of luminol (L-012 assay). It counts as biochemical. Particulars: for Peroxynitrite gen (% control, 10 μM): compound at 10 μM, SIN-1 100 μM, L-012, PBS pH 8.5. As to the method: Luminol-like compounds such as L-012 are chemilumescent probes that are oxidized by the presence of ROS and RNS such as peroxynitrite. In this assay L-012 is oxidized by the addition of 3-morpholino-sydnonimine (SIN-1), a known peroxynitrite generator. The emitted luminescence is directly proportional to the concentration of SIN-1. The compounds were assessed for their ability to neutralize/scavenge/decompose peroxynitrite by blocking the increase of peroxynitrite induced chemilumescence. Concentrations of compound producing 50% inhibition of the luminescence signal (IC50 values) were calculated by testing the compounds at various concentrations of two parallel measurements.
Stock solution (10 mM) of compounds were prepared in 100% DMSO.
The following solutions were added to white polystyrene, non-sterile 96-well plate (Thermo Scientifi NUNC™ 96 MICROWELL™ White Polystyrene Plates #447796): • 10 μL SIN-1 2 mM in 100% DMSO solution (SIN-1 final concentration 100 DMSO final volume—5%); • 190 μL L012+/−test compound in phosphate-buffered solution (PBS, pH=8.5) (L012 final concentration 100 μM).
Luminescence signal was recorded by Hidex Sense multimodal microplate reader (Hidex) at 30° C. for 30 min, with a measurement every 60 sec and an integration time of 1 sec.
IC50 values were calculated using two different methods; first by measuring the slopes of the steepest linear portion of the kinetic profile during the first 5 min (as % from control) and secondly, by measuring the maximal luminiscence at 30 min time point (as % from control). IC50 values of the tested compounds were calculated using GraphPad Prism 5.0 software package.

Series [2] has as its system carrageenan-induced thermal hyperalgesia and edema. In words: Intraplantar carrageenan model of acute inflammatory pain (Hargreaves test, paw volume). It counts as in vivo, rat. Particulars: 30 mg/kg p.o., dosed preemptively, assessed 4 h post-carrageenan. As to the method: The intraplantar carrageenan model of acute inflammatory pain in the rat results in behaviors similar to that observed in patients and has been widely used to assess novel pharmacological treatments (Whiteside, et al., 2005, J. Pharmacol. Exp. Ther. 314:1234-1240).
For this assay, paw withdrawal latency to a thermal stimulus was assessed using a radiant heat source (Ugo Basile, Italy) aimed at the plantar surface of the left hind paw (Hargreaves test). A cut-off latency of 40 sec is set to avoid tissue damage. Paw volume was measured by displacement of water and assuming a tissue density equal to that of water. Baseline latencies were taken prior to carrageenan administration and re-assessed 4 h later. Compounds of the invention or vehicle were administered (10 and 30 mg/kg, p.o.) 3 h after carrageenan (curative) and behavior assessed 1 h later. Additionally, compounds of the invention were administered 15 minutes prior to carrageenan (preemptive) and behavior assessed 4 h post carrageenan. Indomethacin (positive control, 30 mg/kg p.o.) was administered prior to carrageenan and behavior assessed 4 h post-carrageenan.
Intraplantar injection of carrageenan was performed under 2.5-4.0% isoflurane/O2 anesthesia, delivered via nose cone. After induction of anesthesia, the injection site was prepared in a sterile manner and 50 μL of a 2% λ-carrageenan was injected. […]

Series [3] has as its system nerve injury induced tactile allodynia. In words: Rat spinal nerve ligation (SNL) model, tactile allodynia (von Frey). In kind it is in vivo. As to conditions: 100 mg/kg i.p. As for the experimental part: The spinal nerve ligation (SNL) model of neuropathic pain in the rat results in behaviors similar to that observed in patients (Kim & Chung, 1992, Pain 50(3):355-63) and has been widely used to assess novel pharmacological treatments (Sindrup & Jensen, 1999, Pain 83(3):389-400). Compounds of the invention were evaluated for its ability to reverse or prevent development of tactile allodynia in a rat model of neuropathic pain.
The positive control was gabapentin (Toronto Research Chemicals, Canada). The negative control was vehicle (0.5% methyl cellulose; 2-hydroxy-propyl-beta-cyclodextrin). Male Sprague-Dawley Rats (Harlan, 11) were 250-300 g at time of dosing. […]
The effect of compounds of the invention on nerve injury induced tactile allodynia was investigated using von Frey filaments 1-3 weeks after tight ligation of the LS spinal nerve. Tactile thresholds were assessed using a series of calibrated von Frey monofilaments (Stoelting, Wood Dale, Ill.). Assessment of tactile allodynia was measured as the hind paw-withdrawal threshold that produced a 50% likelihood of a withdrawal using the up-down method. Thresholds were evaluated before surgery, and they were reassessed 1-3 weeks after SNL surgery. […] Tactile thresholds were again assessed either 1 and 3 h, 3 and 5 h or once weekly after administration. […]

Series [4] concerns latency to fall from rotarod. In words: Accelerating rotarod assay of ataxia. Particulars: 3 mg/kg p.o., 1 h post-administration. In kind it is in vivo, rat. As to the method: Ataxia is a common clinical problem with CNS-active compounds and can often confound interpretation of efficacy in preclinical pain models. The rotarod assay of ataxia has been widely used to assess the side-effect liability of novel pharmacological treatments (Jones & Roberts, 1968, J. Pharm. Pharmacol. 20:302-04).
The effect of compounds of the invention to impact latency to fall in an accelerating rotarod assay of ataxia in rats was evaluated. The positive control was haloperidol (Sigma, St. Louis), and the negative control was vehicle (which was hydroxypropylmethyl-cellulose and 15% DMA, 65% PEG300, and 20% D5W for haloperidol).
Male Sprague-Dawley Rats (Harlan, Ill.) were 250-300 g at time of dosing. Rotarod was obtained from IITC, CA. To examine the potential effects of compounds of the invention on motor performance, rats were tested on an accelerating rotarod (IITC, Ca). In this assay, rats were placed on the rotarod with the speed set to accelerate from 4 to 40 rpm over 300 sec. The maximum time spent on the rotarod was set at 300 seconds. Rats received two timed training trials (averaged to give the reported baseline) on the first day, then 24 h later rats were administered compound of the invention (30, 100 and 300 mg/kg, p.o.), haloperidol (3 mg/kg, p.o.) or vehicle.
(The rotarod test checks motor coordination on a turning rod.)

Setting [5] is: from maximal luminescence at 30 min time point, read-out: IC50 (μM) (% luminol absorb. @ 30 min).
Where [6] appears, read: from slopes of steepest linear portion of kinetic profile during first 5 min, read-out: IC50 (μM) (% PN gen).

In the case of `CC1(C)SC(Nc2cccnc2O)=N[C@H]1C(=O)O.Cl` [Compound 23a, (S)-2-((2-Hydroxypyridin-3-yl)amino)-5,5-dimethyl-4,5-dihydrothiazole-4-carboxylic acid hydrochloride], the “Peroxynitrite gen (% control, 10 μM)” value in series [1] was determined as 67 % control. The IC50 in series [1] (setting [5]) and in series [1] (setting [6]) was over 10 µM each time.
In the case of `Cl.O=C(O)[C@H]1CSC(Nc2ncccc2O)=N1` [Compound 8a, (S)-2-((3-hydroxypyridin-2-yl)amino)-4,5-dihydrothiazole-4-carboxylic acid hydrochloride], the “Peroxynitrite gen (% control, 10 μM)” value in series [1] amounted to 0 % control. Further, the IC50 in series [1] (setting [5]) amounted to 2.1 µM; in series [1] (setting [6]) it was 0.23 µM.
Take `CC1(C)SC(Nc2cccnc2O)=N[C@@H]1C(=O)O.Cl` [Compound 22a, (R)-2-((2-Hydroxypyridin-3-yl)amino)-5,5-dimethyl-4,5-dihydrothiazole-4-carboxylic acid hydrochloride]: the “Peroxynitrite gen (% control, 10 μM)” value in series [1] is recorded as 96 % control. Further, the IC50 in series [1] (setting [5]) and in series [1] (setting [6]) was over 10 µM in each case.
In the case of `COc1ccc2c(c1)c(CC(=O)O)c(C)n2C(=O)c1ccc(Cl)cc1` [indomethacin], in series [2], the “prevention of carrageenan-induced edema (paw volume)” value was “statistically significant prevention” and the “prevention of carrageenan-induced thermal hyperalgesia” value is “statistically significant prevention”.
For the compound `Cl.O=C(O)[C@@H]1CSC(Nc2cnccc2O)=N1` [Compound 25a, (R)-2-((4-Hydroxypyridin-3-yl)amino)-4,5-dihydrothiazole-4-carboxylic acid hydrochloride], in series [1], the “Peroxynitrite gen (% control, 10 μM)” value amounted to 111 % control. The IC50 in series [1] (setting [5]) and in series [1] (setting [6]) was over 10 µM each time.
Turning to `CC1(C)SC(Nc2ccncc2O)=N[C@H]1C(=O)O.Cl` [Compound 18a, (S)-2-((3-Hydroxypyridin-4-yl)amino)-5,5-dimethyl-4,5-dihydrothiazole-4-carboxylic acid hydrochloride], the “Peroxynitrite gen (% control, 10 μM)” value in series [1] is recorded as 77 % control. For the same compound, the IC50 in series [1] (setting [5]) and in series [1] (setting [6]) was over 10 µM throughout.
In the case of `NCC1(CC(=O)O)CCCCC1` [gabapentin], in series [3], the “reversal of tactile allodynia” value was “statistically significant reversal of allodynia”.
With `Cl.O=C(O)[C@@H]1CSC(Nc2ccncc2O)=N1` [Compound 27a, (R)-2-(3-Hydroxy-pyridin-4-ylamino)-4,5-dihydro-thiazole-4-carboxylic acid hydrochloride], the “Peroxynitrite gen (% control, 10 μM)” value in series [1] turned out to be 61 % control. Besides, the IC50 in series [1] (setting [5]) and in series [1] (setting [6]) was over 10 µM in each case.
Turning to `CC1(C)SC(Nc2ncccc2O)=N[C@H]1C(=O)O.Cl` [Compound 5a, (S)-2-(3-Hydroxy-pyridin-2-ylamino)-5,5-dimethyl-4,5-dihydro-thiazole-4-carboxylic acid hydrochloride], in series [1], the “Peroxynitrite gen (% control, 10 μM)” value was 0 % control. The IC50 in series [1] (setting [5]) worked out at 1.6 µM; in series [1] (setting [6]), 0.17 µM.
Consider `CC1(C)SC(Nc2ncccc2O)=N[C@@H]1C(=O)O.Cl` [Compound 4a, (R)-2-(3-Hydroxy-pyridin-2-ylamino)-5,5-dimethyl-4,5-dihydro-thiazole-4-carboxylic acid hydrochloride], for which, in series [1], the “Peroxynitrite gen (% control, 10 μM)” value is 0 % control. For the same compound, the IC50 worked out at 1.8 µM in series [1] (setting [5]) and 0.26 µM in series [1] (setting [6]).
On to `Cl.O=C(O)[C@@H]1CSC(Nc2ncccc2O)=N1` [Compound 7a, (R)-2-((3-hydroxypyridin-2-yl)amino)-4,5-dihydrothiazole-4-carboxylic acid hydrochloride], for which, in series [1], the “Peroxynitrite gen (% control, 10 μM)” value came out at 0 % control. Further, the figures for the IC50 in series [1] (setting [5]) and in series [1] (setting [6]) were 1.8 µM and 0.17 µM, respectively.
For `CC1(C)SC(Nc2cnccc2O)=N[C@@H]1C(=O)O.Cl` [Compound 12a, (R)-2-((4-Hydroxypyridin-3-yl)amino)-5,5-dimethyl-4,5-dihydrothiazole-4-carboxylic acid hydrochloride], in that order: 82 % control, over 10 µM and over 10 µM.
On the same counts, the results for `CC1(C)SC(Nc2ccncc2O)=N[C@@H]1C(=O)O.Cl` [Compound 17a, (R)-2-((3-Hydroxypyridin-4-yl)amino)-5,5-dimethyl-4,5-dihydrothiazole-4-carboxylic acid hydrochloride] are 75 % control, over 10 µM and over 10 µM.
Regarding `O=C(CCCN1CCC(O)(c2ccc(Cl)cc2)CC1)c1ccc(F)cc1` [haloperidol], in series [4], the “motor performance / latency to fall in rotarod” value is reported as “significant motor deficits”.

One may read the IC50 as the midpoint of a concentration-inhibition curve.
